In PubChem BioAssay AID2060623 (Molecular Pharmacology Branch, DTP, NCI, 2025):

Tested on: 227483-062-R1-J1-PDC complex spheroids with HUVEC/MSC, viability
Experiment: Anticancer human tumor 227483-062-R1-J1-PDC patient-derived pancreatic carcinoma cell line growth inhibition [CLK]
Settings: for IC50: curve of first compound; for viability, T/C: stronger effect = lower value
Method in brief: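 Multi-cell-type spheroids combined patient-derived tumor cells with HUVEC endothelial cells and human mesenchymal stem cells. Paired agents were dosed in half-log steps down from about clinical Cmax, or from 10 microM where Cmax was unknown.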

[1] = second compound 0.0316 µM, first compound 0.0316 µM
[2] = second compound 0.0316 µM, first compound 0.1 µM
[3] = second compound 0.0316 µM, first compound 0.316 µM
[4] = second compound 0.0316 µM, first compound 1 µM
[5] = second compound 0.1 µM, first compound 0.0316 µM
[6] = second compound 0.1 µM, first compound 0.1 µM
[7] = second compound 0.1 µM, first compound 0.316 µM
[8] = second compound 0.1 µM, first compound 1 µM
[9] = second compound 0.316 µM, first compound 0.0316 µM
[10] = second compound 0.316 µM, first compound 0.1 µM
[11] = second compound 0.316 µM, first compound 0.316 µM
[12] = second compound 0.316 µM, first compound 1 µM
[13] = second compound 1 µM, first compound 0.0316 µM
[14] = second compound 1 µM, first compound 0.1 µM
[15] = second compound 1 µM, first compound 0.316 µM
[16] = second compound 1 µM, first compound 1 µM
[17] = second compound 3.16 µM, first compound 0.0316 µM
[18] = second compound 3.16 µM, first compound 0.1 µM
[19] = second compound 3.16 µM, first compound 0.316 µM
[20] = second compound 3.16 µM, first compound 1 µM
[21] = second compound 10 µM, first compound 0.0316 µM
[22] = second compound 10 µM, first compound 0.1 µM
[23] = second compound 10 µM, first compound 0.316 µM
[24] = second compound 10 µM, first compound 1 µM
[25] = second compound 0.0316 µM, first compound 0.00316 µM
[26] = second compound 0.0316 µM, first compound 0.01 µM
[27] = second compound 0.1 µM, first compound 0.00316 µM
[28] = second compound 0.1 µM, first compound 0.01 µM
[29] = second compound 0.316 µM, first compound 0.00316 µM
[30] = second compound 0.316 µM, first compound 0.01 µM
[31] = second compound 1 µM, first compound 0.00316 µM
[32] = second compound 1 µM, first compound 0.01 µM
[33] = second compound 3.16 µM, first compound 0.00316 µM
[34] = second compound 3.16 µM, first compound 0.01 µM
[35] = second compound 10 µM, first compound 0.00316 µM
[36] = second compound 10 µM, first compound 0.01 µM
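Note: spheroids exposed to compounds for seven days before readout.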
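Throughout, for viability, T/C: percent of DMSO vehicle control luminescence as 100% viability.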

Structure (SMILES): CC(Nc1ccc2c(c1)OCCn1cc(N3C(=O)OCC3C(F)F)nc1-2)C(N)=O (stereo unspecified) + CNC(=O)c1ccc(Nc2nc(OC3CCCC3)c3c(-c4ccc5nc(C)oc5c4)c[nH]c3n2)c(OC)c1
- IC50 (second compound 0.0316 µM): > 10 µM
- IC50 (second compound 0.1 µM): > 10 µM
- IC50 (second compound 0.316 µM): > 10 µM
- IC50 (second compound 1 µM): 0.0733 µM
- IC50 (second compound 3.16 µM): < 0.0316 µM
- IC50 (second compound 10 µM): < 0.0316 µM
- viability, T/C [1]: 105%
- viability, T/C [2]: 82.3%
- viability, T/C [3]: 83.9%
- viability, T/C [4]: 85.5%
- viability, T/C (second compound 0.0316 µM, first compound 3.16 µM): 65.4%
- viability, T/C (second compound 0.0316 µM, first compound 10 µM): 67.3%
- viability, T/C [5]: 88%
- viability, T/C [6]: 78.4%
- viability, T/C [7]: 66.1%
- viability, T/C [8]: 70.3%
- viability, T/C (second compound 0.1 µM, first compound 3.16 µM): 55.7%
- viability, T/C (second compound 0.1 µM, first compound 10 µM): 58.2%
- viability, T/C [9]: 92.5%
- viability, T/C [10]: 64.3%
- viability, T/C [11]: 65.5%
- viability, T/C [12]: 52.4%
- viability, T/C (second compound 0.316 µM, first compound 3.16 µM): 56.9%
- viability, T/C (second compound 0.316 µM, first compound 10 µM): 49.7%
- viability, T/C [13]: 60.6%
- viability, T/C [14]: 45.1%
- viability, T/C [15]: 46.9%
- viability, T/C [16]: 47.7%
- viability, T/C (second compound 1 µM, first compound 3.16 µM): 39.7%
- viability, T/C (second compound 1 µM, first compound 10 µM): 41.9%
- viability, T/C [17]: 45%
- viability, T/C [18]: 49.8%
- viability, T/C [19]: 32%
- viability, T/C [20]: 33.4%
- viability, T/C (second compound 3.16 µM, first compound 3.16 µM): 35.4%
- viability, T/C (second compound 3.16 µM, first compound 10 µM): 25.9%
- viability, T/C [21]: 38.6%
- viability, T/C [22]: 46.2%
- viability, T/C [23]: 37.7%
- viability, T/C [24]: 27.8%
- viability, T/C (second compound 10 µM, first compound 3.16 µM): 32.9%
- viability, T/C (second compound 10 µM, first compound 10 µM): 24.9%

Structure (SMILES): CCN1CCN(Cc2ccc(Nc3ncc(F)c(-c4cc(F)c5nc(C)n(C(C)C)c5c4)n3)nc2)CC1 + CNC(=O)c1ccc(Nc2nc(OC3CCCC3)c3c(-c4ccc5nc(C)oc5c4)c[nH]c3n2)c(OC)c1
- IC50 (second compound 0.0316 µM): > 1 µM
- IC50 (second compound 0.1 µM): > 1 µM
- IC50 (second compound 0.316 µM): > 1 µM
- IC50 (second compound 1 µM): > 1 µM
- IC50 (second compound 3.16 µM): 0.577 µM
- IC50 (second compound 10 µM): > 1 µM
- viability, T/C [25]: 103%
- viability, T/C [26]: 89.3%
- viability, T/C [1]: 86.9%
- viability, T/C [2]: 82.1%
- viability, T/C [3]: 79.3%
- viability, T/C [4]: 81.8%
- viability, T/C [27]: 103%
- viability, T/C [28]: 115%
- viability, T/C [5]: 95.3%
- viability, T/C [6]: 103%
- viability, T/C [7]: 76.9%
- viability, T/C [8]: 79%
- viability, T/C [29]: 86.3%
- viability, T/C [30]: 94.2%
- viability, T/C [9]: 88.8%
- viability, T/C [10]: 74%
- viability, T/C [11]: 70.7%
- viability, T/C [12]: 67.9%
- viability, T/C [31]: 75.4%
- viability, T/C [32]: 72.4%
- viability, T/C [13]: 64.4%
- viability, T/C [14]: 75.1%
- viability, T/C [15]: 60.6%
- viability, T/C [16]: 53.1%
- viability, T/C [33]: 65%
- viability, T/C [34]: 64.7%
- viability, T/C [17]: 61.7%
- viability, T/C [18]: 57.4%
- viability, T/C [19]: 60.8%
- viability, T/C [20]: 41.4%
- viability, T/C [35]: 41.9%
- viability, T/C [36]: 56.5%
- viability, T/C [21]: 60.4%
- viability, T/C [22]: 74.6%
- viability, T/C [23]: 65.2%
- viability, T/C [24]: 37.1%

Structure (SMILES): COc1c(OCCCN2CCOCC2)ccc2c3n(c(=NC(=O)c4cnc(N)nc4)nc12)CCN3 + CNC(=O)c1ccc(Nc2nc(OC3CCCC3)c3c(-c4ccc5nc(C)oc5c4)c[nH]c3n2)c(OC)c1
- IC50 (second compound 0.0316 µM): > 1 µM
- IC50 (second compound 0.1 µM): 0.0807 µM
- IC50 (second compound 0.316 µM): 0.0612 µM
- IC50 (second compound 1 µM): 0.0106 µM
- IC50 (second compound 3.16 µM): 0.00426 µM
- IC50 (second compound 10 µM): < 0.00316 µM
- viability, T/C [25]: 94.9%
- viability, T/C [26]: 93.6%
- viability, T/C [1]: 79.5%
- viability, T/C [2]: 69%
- viability, T/C [3]: 70%
- viability, T/C [4]: 51.2%
- viability, T/C [27]: 96%
- viability, T/C [28]: 89.5%
- viability, T/C [5]: 56.2%
- viability, T/C [6]: 58.7%
- viability, T/C [7]: 44.1%
- viability, T/C [8]: 41%
- viability, T/C [29]: 87.4%
- viability, T/C [30]: 55.1%
- viability, T/C [9]: 59.8%
- viability, T/C [10]: 52.2%
- viability, T/C [11]: 37.9%
- viability, T/C [12]: 32.2%
- viability, T/C [31]: 55.9%
- viability, T/C [32]: 56.7%
- viability, T/C [13]: 39.9%
- viability, T/C [14]: 32.2%
- viability, T/C [15]: 26.3%
- viability, T/C [16]: 20.6%
- viability, T/C [33]: 50.3%
- viability, T/C [34]: 48.3%
- viability, T/C [17]: 34.9%
- viability, T/C [18]: 22.3%
- viability, T/C [19]: 18.4%
- viability, T/C [20]: 14.8%
- viability, T/C [35]: 43.1%
- viability, T/C [36]: 36.9%
- viability, T/C [21]: 30.3%
- viability, T/C [22]: 21.2%
- viability, T/C [23]: 18%
- viability, T/C [24]: 16.3%
